These results are taken from patent US10017477B2, “Janus kinase inhibitors and uses thereof” (Dana-Farber Cancer Institute, Inc., priority 2014, dated 2018).

Where “and” joins values, the source holds several entries; their conditions need not be identical. Identical values can stand only once. Like-named read-outs stand apart in the source and are kept apart here.

The target in one data set is T1, Ba/F3 JAK3 (Homo sapiens, UniProt P52333).
T1 construct: candidate: TEL (ETV6) N-terminal oligomerisation domain
T1 sequence (P52333 1-1124): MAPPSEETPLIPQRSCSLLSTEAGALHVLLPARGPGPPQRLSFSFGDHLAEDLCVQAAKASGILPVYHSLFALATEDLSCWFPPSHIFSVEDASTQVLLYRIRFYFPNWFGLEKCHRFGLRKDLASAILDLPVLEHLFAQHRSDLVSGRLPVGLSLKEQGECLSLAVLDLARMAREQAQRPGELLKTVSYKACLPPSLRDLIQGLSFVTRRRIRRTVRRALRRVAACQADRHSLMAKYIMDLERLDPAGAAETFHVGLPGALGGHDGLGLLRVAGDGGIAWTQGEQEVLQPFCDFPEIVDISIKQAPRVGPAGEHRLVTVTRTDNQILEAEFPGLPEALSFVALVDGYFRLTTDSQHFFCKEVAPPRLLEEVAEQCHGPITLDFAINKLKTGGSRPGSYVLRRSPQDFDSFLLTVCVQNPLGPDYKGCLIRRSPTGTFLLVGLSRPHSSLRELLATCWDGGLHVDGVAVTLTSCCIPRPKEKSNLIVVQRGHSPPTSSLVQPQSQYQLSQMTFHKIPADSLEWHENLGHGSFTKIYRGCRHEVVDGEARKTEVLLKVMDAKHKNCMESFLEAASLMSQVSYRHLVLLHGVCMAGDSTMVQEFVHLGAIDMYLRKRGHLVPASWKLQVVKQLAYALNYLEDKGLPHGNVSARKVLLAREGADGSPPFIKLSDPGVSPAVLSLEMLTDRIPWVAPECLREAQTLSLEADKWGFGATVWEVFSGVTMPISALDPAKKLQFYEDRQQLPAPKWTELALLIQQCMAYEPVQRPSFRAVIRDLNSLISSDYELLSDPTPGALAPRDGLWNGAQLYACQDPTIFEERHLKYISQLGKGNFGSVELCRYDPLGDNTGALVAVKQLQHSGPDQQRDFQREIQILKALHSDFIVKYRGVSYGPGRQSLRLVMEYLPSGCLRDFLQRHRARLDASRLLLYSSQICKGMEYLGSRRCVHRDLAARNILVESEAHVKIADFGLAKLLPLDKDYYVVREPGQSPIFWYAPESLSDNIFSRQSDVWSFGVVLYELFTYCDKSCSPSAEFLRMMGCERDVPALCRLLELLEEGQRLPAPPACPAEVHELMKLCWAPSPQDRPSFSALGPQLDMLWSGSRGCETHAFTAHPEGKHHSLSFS
Briefly: CellTiter-Glo cell proliferation, Ba/F3 JAK3. The following applies: 72 hours, read-out: Ba/F3 IC50 JAK3. The format is cell-based, murine.

The subject of data set [1] is NKL (a Natural Killer Cell Lymphoma (NKCL) cell line). The data set can be described thus: CellTiter-Glo cell proliferation, NKL cancer cell line. The format is cell-based. The procedure: (§1) CellTiter-Glo® Luminescent cell viability assay (Promega) was used to assess cell survival following treatment with the compounds described herein. Cells were seeded into 384 well plates with the EL406 Combination Washer Dispenser (BioTek Instruments, Inc.), and the compounds were injected into the cells culture media with the JANUS Automated Workstation (PerkinElmer Inc.). Cells were treated with a series diluted inhibitors (20 to 0.04 μM) for 72 hours at 37° C. Luminescent measurement is performed using the 2104 Envision® Multilabel Reader (PerkinElmer Inc.). The cell lines employed include Ba/F3 (a murine interleukin-3 dependent pro-B cell line), NKL (a Natural Killer Cell Lymphoma (NKCL) cell line), CMK (an Acute Megakaryoblastic Leukemia (AMKL) cell line).
A general note: Cellular ATP, detected with luciferase, serves as a proxy for viable cell number.

The subject of data set [2] is CMK (an Acute Megakaryoblastic Leukemia (AMKL) cell line). Briefly: CellTiter-Glo cell proliferation, CMK cancer cell line. Type of data set: cell-based. The procedure:
as §1

The next data set in a line: Aqueous solubility. The note with it: aqueous medium; at 25° C. Type of data set: physicochemical.
Data set [3] can be described thus: Pharmacokinetics in mouse. Type of data set: in vivo. The following applies: blood.
The subject of data set [4] is IL-4 signaling (JAK3 dependent). Briefly: Profiling on primary immune cells, IL-4 signaling. Type of data set: cell-based.
Data set [5] has as its system EGFR (T790M) dependent Ba/F3. The data set can be described thus: Proliferation of EGFR (T790M) dependent Ba/F3. Type of data set: cell-based, murine. The following applies: Mus musculus, BaF3; at 200 nM. The procedure: as §1
The target in another data set is T2, JAK3 (Homo sapiens, UniProt P52333).
T2 construct: purchased INVITROGEN (Select Screening assay service)
T2 sequence (P52333 1-1124): T1 sequence (P52333 1-1124)
Briefly: INVITROGEN Select Screening assay, enzymatic IC50, JAK3. Type of data set: biochemical.

The next data set addresses T3, Ba/F3 JAK1 (Homo sapiens, UniProt P23458).
T3 construct: candidate: TEL (ETV6) N-terminal oligomerisation domain
The data set can be described thus: CellTiter-Glo cell proliferation, Ba/F3 JAK1. The following applies: 72 hours; read-out: Ba/F3 IC50 JAK1. The format is cell-based, murine.

In the next data set the target is T4, Ba/F3 JAK2 (Homo sapiens, UniProt O60674).
T4 construct: candidate: TEL (ETV6) N-terminal oligomerisation domain
The data set can be described thus: CellTiter-Glo cell proliferation, Ba/F3 JAK2. The format is cell-based, murine. The following applies: 72 hours; read-out: Ba/F3 IC50 JAK2.

The next data set deals with T5, Ba/F3 TYK2 (Homo sapiens, UniProt P29597).
T5 construct: The likeliest candidate is TEL (ETV6) N-terminal oligomerisation domain fused to the TYK2 kinase domain; BCR, another partner, or no partner are also possible
The data set can be described thus: CellTiter-Glo cell proliferation, Ba/F3 TYK2. Type of data set: cell-based, murine. The note with it: 72 hours; read-out: Ba/F3 IC50 TYK2.

Another data set concerns the target T6, Ba/F3 ABL (Homo sapiens, UniProt P00519).
T6 construct: candidates: BCR or TEL (ETV6)
The data set can be described thus: CellTiter-Glo cell proliferation, Ba/F3 ABL. The format is cell-based, murine. The note with it: 72 hours; read-out: Ba/F3 IC50 ABL. As for the experimental part:
as §1

A further data set has as its target T7, AURKA (Homo sapiens, UniProt O14965).
T7 construct: purchased INVITROGEN (Select Screening assay service)
T7 sequence (O14965 1-403): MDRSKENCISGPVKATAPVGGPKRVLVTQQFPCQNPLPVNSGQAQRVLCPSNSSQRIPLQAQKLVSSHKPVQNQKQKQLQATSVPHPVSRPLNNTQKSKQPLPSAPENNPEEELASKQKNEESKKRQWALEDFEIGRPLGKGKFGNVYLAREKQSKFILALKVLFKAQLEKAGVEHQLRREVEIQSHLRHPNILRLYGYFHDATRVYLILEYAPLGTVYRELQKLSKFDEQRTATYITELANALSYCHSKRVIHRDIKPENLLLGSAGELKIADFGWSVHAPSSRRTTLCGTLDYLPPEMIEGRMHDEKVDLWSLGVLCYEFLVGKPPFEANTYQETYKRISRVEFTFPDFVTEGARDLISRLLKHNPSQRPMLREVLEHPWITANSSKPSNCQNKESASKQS
Briefly: INVITROGEN Select Screening assay, enzymatic IC50, AURKA. The format is biochemical. The source says: (§2) The in vitro activity of the compounds described herein in inhibiting JAK3 and other kinases were obtained using an INVITROGEN Select Screening assay as known in the art.

Another data set has as its target T8, AURKB (Homo sapiens, UniProt Q96GD4).
T8 construct: purchased INVITROGEN (Select Screening assay service)
The data set can be described thus: INVITROGEN Select Screening assay, enzymatic IC50, AURKB. Type of data set: biochemical.
From the text: as §2

T4 sequence (O60674 whole entry, change not shown, the tested form may be a part): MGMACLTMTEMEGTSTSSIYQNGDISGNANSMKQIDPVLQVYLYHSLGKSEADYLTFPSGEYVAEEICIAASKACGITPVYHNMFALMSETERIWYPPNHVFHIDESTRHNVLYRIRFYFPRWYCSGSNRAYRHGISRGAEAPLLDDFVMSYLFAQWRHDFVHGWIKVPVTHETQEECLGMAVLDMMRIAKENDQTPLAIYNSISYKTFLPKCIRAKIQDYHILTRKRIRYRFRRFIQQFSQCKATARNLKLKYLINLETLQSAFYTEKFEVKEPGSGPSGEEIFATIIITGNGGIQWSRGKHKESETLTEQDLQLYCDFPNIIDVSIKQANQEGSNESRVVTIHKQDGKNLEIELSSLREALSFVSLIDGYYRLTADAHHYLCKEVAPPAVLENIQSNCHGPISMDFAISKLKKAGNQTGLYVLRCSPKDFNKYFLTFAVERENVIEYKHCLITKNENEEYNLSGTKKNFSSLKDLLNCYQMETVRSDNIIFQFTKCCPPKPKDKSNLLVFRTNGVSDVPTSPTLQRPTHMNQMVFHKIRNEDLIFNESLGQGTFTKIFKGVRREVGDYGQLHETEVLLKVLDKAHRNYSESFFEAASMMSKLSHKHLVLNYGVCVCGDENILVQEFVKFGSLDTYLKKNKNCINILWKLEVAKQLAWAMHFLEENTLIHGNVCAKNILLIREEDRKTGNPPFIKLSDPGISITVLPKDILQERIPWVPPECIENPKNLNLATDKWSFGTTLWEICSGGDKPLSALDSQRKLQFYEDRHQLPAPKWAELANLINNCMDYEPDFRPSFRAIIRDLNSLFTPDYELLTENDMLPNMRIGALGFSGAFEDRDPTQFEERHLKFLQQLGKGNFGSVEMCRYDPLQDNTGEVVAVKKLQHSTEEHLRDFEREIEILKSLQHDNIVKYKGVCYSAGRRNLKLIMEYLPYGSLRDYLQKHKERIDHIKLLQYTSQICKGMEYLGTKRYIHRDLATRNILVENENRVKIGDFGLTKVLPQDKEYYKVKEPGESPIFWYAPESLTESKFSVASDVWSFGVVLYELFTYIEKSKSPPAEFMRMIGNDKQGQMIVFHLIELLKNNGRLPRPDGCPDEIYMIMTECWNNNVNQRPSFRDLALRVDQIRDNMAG
T5 sequence (P29597 whole entry, change not shown, the tested form may be a part): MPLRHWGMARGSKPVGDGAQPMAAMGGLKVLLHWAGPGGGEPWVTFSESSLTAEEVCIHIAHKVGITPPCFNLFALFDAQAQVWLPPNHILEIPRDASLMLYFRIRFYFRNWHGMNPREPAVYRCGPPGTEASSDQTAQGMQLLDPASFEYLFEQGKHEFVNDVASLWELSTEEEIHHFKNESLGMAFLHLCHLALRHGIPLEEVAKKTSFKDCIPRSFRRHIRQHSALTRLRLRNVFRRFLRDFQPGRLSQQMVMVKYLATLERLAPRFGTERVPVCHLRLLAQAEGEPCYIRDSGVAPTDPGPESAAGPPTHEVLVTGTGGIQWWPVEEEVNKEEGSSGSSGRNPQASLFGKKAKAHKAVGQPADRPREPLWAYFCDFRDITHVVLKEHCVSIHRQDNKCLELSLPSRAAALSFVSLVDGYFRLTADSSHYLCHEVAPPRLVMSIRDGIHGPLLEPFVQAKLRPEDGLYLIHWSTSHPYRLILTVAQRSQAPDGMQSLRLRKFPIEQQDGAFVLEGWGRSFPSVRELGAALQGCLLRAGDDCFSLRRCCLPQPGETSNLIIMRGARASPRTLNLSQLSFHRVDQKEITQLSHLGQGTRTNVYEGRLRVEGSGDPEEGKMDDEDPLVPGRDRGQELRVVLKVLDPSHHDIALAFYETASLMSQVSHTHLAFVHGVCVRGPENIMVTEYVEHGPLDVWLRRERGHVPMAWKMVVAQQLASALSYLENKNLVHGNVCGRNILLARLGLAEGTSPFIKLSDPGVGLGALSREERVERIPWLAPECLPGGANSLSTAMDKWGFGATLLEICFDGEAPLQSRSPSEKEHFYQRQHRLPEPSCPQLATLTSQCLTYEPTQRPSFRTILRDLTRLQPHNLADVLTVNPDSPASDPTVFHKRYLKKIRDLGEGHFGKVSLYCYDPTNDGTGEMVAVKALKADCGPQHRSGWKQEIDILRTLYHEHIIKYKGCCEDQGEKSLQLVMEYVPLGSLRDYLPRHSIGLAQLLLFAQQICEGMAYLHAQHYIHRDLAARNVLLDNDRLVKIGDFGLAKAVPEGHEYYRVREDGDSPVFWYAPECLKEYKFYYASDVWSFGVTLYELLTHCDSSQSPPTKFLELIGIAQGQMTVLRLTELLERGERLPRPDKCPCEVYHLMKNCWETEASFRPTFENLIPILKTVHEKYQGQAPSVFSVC
T3 sequence (P23458 whole entry, change not shown, the tested form may be a part): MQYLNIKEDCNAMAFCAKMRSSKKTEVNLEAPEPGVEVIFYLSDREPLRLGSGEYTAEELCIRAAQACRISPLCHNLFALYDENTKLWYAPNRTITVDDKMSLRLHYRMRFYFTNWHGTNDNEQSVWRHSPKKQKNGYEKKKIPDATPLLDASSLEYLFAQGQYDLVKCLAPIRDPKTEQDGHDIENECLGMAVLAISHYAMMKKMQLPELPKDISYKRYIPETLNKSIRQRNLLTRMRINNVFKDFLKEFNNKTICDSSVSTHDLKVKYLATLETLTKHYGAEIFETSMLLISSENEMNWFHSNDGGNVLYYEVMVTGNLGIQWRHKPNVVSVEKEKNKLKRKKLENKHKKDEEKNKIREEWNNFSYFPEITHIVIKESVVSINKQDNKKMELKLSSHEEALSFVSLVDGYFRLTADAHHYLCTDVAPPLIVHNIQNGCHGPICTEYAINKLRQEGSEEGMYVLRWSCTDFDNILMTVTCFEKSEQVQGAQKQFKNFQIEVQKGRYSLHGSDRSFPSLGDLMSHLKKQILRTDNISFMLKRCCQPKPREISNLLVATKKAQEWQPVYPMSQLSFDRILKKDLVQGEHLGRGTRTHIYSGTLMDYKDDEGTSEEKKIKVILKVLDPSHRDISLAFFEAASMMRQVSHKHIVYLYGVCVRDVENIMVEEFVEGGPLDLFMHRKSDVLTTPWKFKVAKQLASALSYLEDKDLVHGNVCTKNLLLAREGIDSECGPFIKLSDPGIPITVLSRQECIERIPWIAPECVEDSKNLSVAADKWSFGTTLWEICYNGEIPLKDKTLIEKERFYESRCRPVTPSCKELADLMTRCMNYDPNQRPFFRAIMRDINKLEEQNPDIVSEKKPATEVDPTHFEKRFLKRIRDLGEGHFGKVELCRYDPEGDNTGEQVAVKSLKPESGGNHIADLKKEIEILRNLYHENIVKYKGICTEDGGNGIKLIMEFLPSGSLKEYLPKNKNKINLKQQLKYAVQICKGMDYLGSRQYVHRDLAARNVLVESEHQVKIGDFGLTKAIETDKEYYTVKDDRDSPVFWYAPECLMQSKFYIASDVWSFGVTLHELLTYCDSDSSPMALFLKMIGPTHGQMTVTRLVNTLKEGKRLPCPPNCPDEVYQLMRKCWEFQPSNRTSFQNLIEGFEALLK
T6 sequence (P00519 whole entry, change not shown): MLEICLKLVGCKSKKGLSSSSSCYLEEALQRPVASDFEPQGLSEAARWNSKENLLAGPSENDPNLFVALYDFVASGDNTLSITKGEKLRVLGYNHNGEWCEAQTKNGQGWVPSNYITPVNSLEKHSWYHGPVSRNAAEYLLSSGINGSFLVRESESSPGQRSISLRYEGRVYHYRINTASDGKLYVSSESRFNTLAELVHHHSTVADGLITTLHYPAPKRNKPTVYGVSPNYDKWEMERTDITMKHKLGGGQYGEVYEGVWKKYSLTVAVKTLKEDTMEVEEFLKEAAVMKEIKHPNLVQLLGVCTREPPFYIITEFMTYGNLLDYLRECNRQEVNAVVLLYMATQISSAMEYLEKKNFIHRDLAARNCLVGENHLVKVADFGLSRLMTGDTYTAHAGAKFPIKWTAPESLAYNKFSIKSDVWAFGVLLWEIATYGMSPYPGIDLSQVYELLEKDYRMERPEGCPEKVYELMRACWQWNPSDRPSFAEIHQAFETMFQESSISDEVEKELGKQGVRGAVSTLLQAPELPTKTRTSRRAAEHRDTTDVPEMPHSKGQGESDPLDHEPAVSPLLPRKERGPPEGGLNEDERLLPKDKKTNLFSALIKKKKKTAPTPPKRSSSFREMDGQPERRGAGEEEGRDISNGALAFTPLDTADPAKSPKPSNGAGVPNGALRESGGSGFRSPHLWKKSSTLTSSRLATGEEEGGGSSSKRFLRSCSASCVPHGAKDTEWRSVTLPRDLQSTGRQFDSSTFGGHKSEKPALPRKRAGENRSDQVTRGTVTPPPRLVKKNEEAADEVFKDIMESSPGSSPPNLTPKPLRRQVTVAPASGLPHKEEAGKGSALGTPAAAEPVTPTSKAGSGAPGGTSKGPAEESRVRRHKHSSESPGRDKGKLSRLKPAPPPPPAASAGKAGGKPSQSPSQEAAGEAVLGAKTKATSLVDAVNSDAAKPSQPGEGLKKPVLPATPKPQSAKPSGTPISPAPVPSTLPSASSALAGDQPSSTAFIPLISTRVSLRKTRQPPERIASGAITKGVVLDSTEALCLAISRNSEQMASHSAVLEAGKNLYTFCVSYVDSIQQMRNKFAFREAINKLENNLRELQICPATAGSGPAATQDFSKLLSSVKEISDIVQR
T8 sequence (Q96GD4 whole entry): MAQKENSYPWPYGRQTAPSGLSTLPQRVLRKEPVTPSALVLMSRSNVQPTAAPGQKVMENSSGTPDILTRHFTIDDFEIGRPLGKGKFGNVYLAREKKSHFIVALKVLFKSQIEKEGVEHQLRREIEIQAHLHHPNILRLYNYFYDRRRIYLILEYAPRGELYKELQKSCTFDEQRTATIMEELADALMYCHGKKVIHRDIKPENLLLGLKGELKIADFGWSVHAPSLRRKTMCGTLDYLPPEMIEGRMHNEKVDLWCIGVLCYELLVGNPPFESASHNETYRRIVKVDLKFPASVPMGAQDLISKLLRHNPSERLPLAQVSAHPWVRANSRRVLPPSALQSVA

In the case of `C=CC(=O)Nc1cccc(CNc2nc(Nc3ccc(N4CCN(C)CC4)cc3OC)ncc2Cl)c1` [Compound 2, N-(3-(((5-chloro-2-((2-methoxy-4-(4-methylpiperazin-1-yl)phenyl)amino)pyrimidin-4-yl)amino)methyl)phenyl)acrylamide], the GI50 at Ba/F3 JAK3 (listed as compound 2) was 0.06 µM; on Ba/F3 JAK3, 0.0604 µM and 0.0626 µM. Moreover, the concentration for half-maximal inhibition (IC50) in data set [1] (72 hours, read-out: Cancer cell lines IC50 NKL) came to 0.0197 µM; in data set [2] (72 hours, read-out: Cancer cell lines IC50 CMK), 8.28 µM. Besides, in data set [1] (IL-2 dependent NKL cell line, read-out: anti-proliferative potency EC50, NKL), the EC50 was found to be 0.02 µM. For the same compound, the “anti-proliferative potency on AMKL cell line (in words)” value in data set [2] (cell line with activating mutation A572V of JAK3) is recorded as “doesn't shown anti-proliferative potency”. This compound also registered a solubility in the data set “Aqueous solubility” of over 250 µM. The same compound had a Cmax in [3] (PO dose at 10 mg/kg) of 0.294 µg/mL. Also, the Tmax in data set [3] (PO dose at 10 mg/kg) was 2 h. In data set [3] (PO dose at 10 mg/kg), this compound yielded a bioavailability of 23%. In [3] (intravenous dose at 1 mg/kg, read-out: Vdss), the Vd was found to be 1.2 L/kg. In addition, the “effect on IL-4 signaling” value in data set [4] is recorded as “blocks IL-4 signaling”. For the same compound, in data set [5], the inhibition at 0.2 µM is over 90%.

For the compound `C=CC(=O)Nc1ccc(CNc2nc(Nc3ccc(N4CCOCC4)c(F)c3)ncc2Cl)cc1` [Compound 14], the IC50 on JAK3 came to 0.0035 µM; against AURKA, 0.279 µM; on AURKB, 1.31 µM. Also, the GI50 at Ba/F3 JAK3 worked out at 0.0305 µM; at Ba/F3 JAK1, 1.29 µM; at Ba/F3 JAK2, 1.87 µM; at Ba/F3 TYK2 it was 0.607 µM; on Ba/F3 ABL, 2.52 µM.

At JAK3, `C=CC(=O)Nc1cccc(CNc2cc(Nc3ccc(N4CCN(C)CC4)cc3OC)ncn2)c1` [Compound 25] displayed an IC50 of 0.0153 µM. Besides, the GI50 at Ba/F3 JAK3 was 0.246 µM; at Ba/F3 JAK1 it was 2.88 µM; on Ba/F3 JAK2, 2.3 µM; on Ba/F3 TYK2, 1.53 µM; on Ba/F3 ABL it was 4.55 µM.

Turning to `C=CC(=O)Nc1ccc(CNc2nc(Nc3ccc(N4CCOCC4)cc3)ncc2Cl)cc1` [Compound 13], the results for the IC50 against AURKA and on AURKB were 0.173 µM and 0.835 µM, respectively.

Broadly, the IC50 is the point on the concentration scale where inhibition reaches its midpoint. The EC50 is the concentration that produces a half-maximal response. Usually solubility stands for the dissolved amount per volume that the medium holds. Broadly, the Cmax is the peak of the concentration-time curve. The Tmax is the time at which the peak concentration occurs. One may read the bioavailability as the share of a dose that reaches the circulation, judged against a reference dose that is usually intravenous. Low readings indicate little systemic uptake, high ones much systemic uptake. A word on the inhibition: it is the drop in the measured response relative to a control, in per cent.
